Values joined by “and” are separate entries in the source; they are usually repeats but may differ in a detail not shown here. Identical values can stand only once. Ends that are not written are not given here. Peptide text beside a SMILES is read from it.
Experiments:
[1] = target: empty disulfide-stabilized HLA-A*02:01(Y84C/A139C) in complex with beta-2 microglobulin (human); assay: isothermal analysis of nanoscale differential scanning fluorimetry (iDSF)
[2] = target: T1, dsA2: HLA-A*02:01(Y84C/A139C) disulfide mutant heavy chain / β2m complex (Homo sapiens, UniProt P04439, A163C/D140Y/D185E/D98H/E176V/E277Q/G131W/G231S/I119V/I121R/I166T/I218V/L300P/L318F/N151K/N90K/P208A/P217A/Q86G/Q94H/R138H/R169H/T345S/Y108C); assay: biochemical; type: binding
T1 construct: made in house; host or cells: Escherichia coli (pET3a)

[3] = target: T1, dsA2: HLA-A*02:01(Y84C/A139C) disulfide mutant heavy chain / β2m complex; assay: native mass spectrometry (nMS) of peptide binding to empty dsA2;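 further: native nano-electrospray MS on Q-Tof II in positive mode, dsA2 at 10 µM with peptide 50–200 µM, incubated ≥10 min on ice, argon collision gas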
[4] = target: T2, dsA2: HLA-A*02:01(Y84C/A139C) disulfide mutant heavy chain / β2m complex (Homo sapiens, UniProt P04439, D140Y/D185E/D98H/E176V/E277Q/G131W/G231S/I119V/I121R/I166T/I218V/L300P/L318F/N151K/N90K/P208A/P217A/Q86G/Q94H/R138H/R169H/T345S/A163C/Y108C); assay: as above; conditions: for AUC dsA2 (empty) / AUC dsA2/erucamide / AUC dsA2/pep / AUC dsA2/pep/pep: cone 150 V, ratio 1:5, raw data, mean of >=3 measurements
T2 construct: made in house; host or cells: Escherichia coli (pET3a)

[5] = target: empty disulfide-stabilized HLA-A*02:01(Y84C/A139C) in complex with beta-2 microglobulin (human); assay: native MS

Compound | Kd [1] | AUC dsA2 (empty) ([4]; acceleration voltage 10 V) | AUC dsA2/erucamide ([4]; acceleration voltage 10 V) | AUC dsA2/pep ([4]; acceleration voltage 10 V) | AUC dsA2/pep/pep ([4]; acceleration voltage 10 V) | AUC dsA2 (empty) ([4]; acceleration voltage 25 V) | AUC dsA2/erucamide ([4]; acceleration voltage 25 V) | AUC dsA2/pep ([4]; acceleration voltage 25 V) | AUC dsA2/pep/pep ([4]; acceleration voltage 25 V) | AUC dsA2 (empty) ([4]; acceleration voltage 50 V) | AUC dsA2/erucamide ([4]; acceleration voltage 50 V) | AUC dsA2/pep ([4]; acceleration voltage 50 V) | AUC dsA2/pep/pep ([4]; acceleration voltage 50 V) | Kd [2] | other results
VV4 (VATV), truncated NV9 variant (peptide) | 50 µM | – | – | – | – | – | – | – | – | – | – | – | – | – | –
GLGGGGGGV [GV9] | – | 52% | 4.3% | 43 ± 2% and 43% | 1.5 ± 0.4% and 1.5% | 50% | 5% | 43% | 2.2% | 62% | 1.7% | 35% | 1.1% | – | Kd ([2]; dsA2 2.2 µM, 20 mM Tris pH 8, 150 mM NaCl, twofold serial dilution, 11 concentrations, two independent measurements, values marked * (below 200 nM) not reliable, read-out: Kd,iDSF): 0.36 µM; Kd ([3]; read-out: Kd,high): 35 µM; Kd ([3]; read-out: Kd,low): 0.5 µM
NLVPMVAT [NT8] | – | 47.3% | 24% | 28% | 0.6% | 50% | 21% | 28.2% | 1% | 75% | 1.6% | 23% | 0.2% | 2.6 µM | Kd [3]: 92 µM and 30 µM
LV8 (LVPMVATV), truncated NV9 variant (peptide) | 0.008 µM | – | – | – | – | – | – | – | – | – | – | – | – | – | Kd [5]: 17 µM
VV7 (VPMVATV), truncated NV9 variant (peptide) | 7.8 µM | – | – | – | – | – | – | – | – | – | – | – | – | – | –
CC(C)C[C@H](NC(=O)[C@@H](N)CC(N)=O)C(=O)N[C@H](C(=O)N1CCC[C@H]1C(=O)O)C(C)C [NP4] (H-NLVP-OH) | – | 55% | 33.8% | 11% | 0.6% | 57.8% | 31.1% | 10.4% | 0.69% | 92.4% | 4.3% | 2.6% | 0.8% | 50 µM | Kd [3]: 350 µM and 100 µM
NA7 (NLVPMVA), truncated NV9 variant (peptide) | 3.6 µM | – | – | – | – | – | – | – | – | – | – | – | – | – | –
CC(C)[C@H](N)C(=O)N[C@@H](C)C(=O)N[C@H](C(=O)N[C@H](C(=O)O)C(C)C)[C@@H](C)O [VV4] (H-VATV-OH) | – | 68% | 18.093% | 14% | 0% | 68% | 17.6% | 14% | 0% | 92% | 4.0% | 4.1% | 0% | 50 µM | –
NM5 (NLVPM), truncated NV9 variant (peptide) | 11 µM | – | – | – | – | – | – | – | – | – | – | – | – | – | –
NV6 (NLVPMV), truncated NV9 variant (peptide) | 9 µM | – | – | – | – | – | – | – | – | – | – | – | – | – | –
VPMVATV [VV7] | – | 61.8% | 19% | 17% | 1.7% | 62% | 20.2% | 17% | 1.16% | 96% | 1.3% | 3% | 0% | 7.8 µM | Kd ([3]; Kd,high): 180 µM; Kd ([3]; Kd,low): 15 µM
NP4 (NLVP), truncated NV9 variant (peptide) | 50 µM | – | – | – | – | – | – | – | – | – | – | – | – | – | Kd [5]: 350 µM and 100 µM
PMVATV [PV6] | – | 68% | 19% | 12% | 0.5% | 68% | 19% | 13% | 0.5% | 90% | 5% | 5% | 0.1% | 15 µM | Kd ([3]; Kd,high): 300 µM; Kd ([3]; Kd,low): 15 µM
Ac-NV9-NH2, NV9 with acetylated N-terminus and amidated C-terminus (peptide) | 4 µM | – | – | – | – | – | – | – | – | – | – | – | – | – | Kd [5]: 80 µM
NLVPMV [NV6] | – | 66% | 24% | 10% | 0.5% | 66% | 22% | 11% | 0.69% | 91.2% | 2.9% | 4.1% | 1.9% | 9 µM | Kd ([3]; Kd,high): 380 µM; Kd ([3]; Kd,low): 30 µM
CCCCCCCC/C=C\CCCCCCCCCCCC(N)=O [erucamide, (Z)-docos-13-enamide] | – | – | – | – | – | – | – | – | – | – | – | – | – | – | occupancy of dsA2 with erucamide ([4]; no peptide, linear extrapolation to cone voltage <=48 V (experimentally unfeasible)): 100%
NLVPMVA [NA7] | – | 75% | 8% | 16% | 0.8% | 68% | 11% | 19% | 1.4% | 86% | 1.8% | 12% | 0.5% | 3.6 µM | Kd ([3]; Kd,high): 210 µM; Kd ([3]; Kd,low): 2 µM
NLVPM [NM5] | – | 62% | 19% | 17.9% | 1.0% | 64% | 17% | 18.0% | 1.2% | 90.3% | 1.3% | 8.1% | 0.3% | 11 µM | Kd ([3]; Kd,high): 180 µM; Kd ([3]; Kd,low): 15 µM
MVATV [MV5] | – | 64% | 10.4% | 23% | 3.2% | 63% | 10.4% | 23% | 3.7% | 80% | 3.3% | 15% | 1.5% | 1.6 µM | Kd ([3]; Kd,high): 110 µM; Kd ([3]; Kd,low): 3 µM
PV6 (PMVATV), truncated NV9 variant (peptide) | 15 µM | – | – | – | – | – | – | – | – | – | – | – | – | – | –
NT8 (NLVPMVAT), truncated NV9 variant (peptide) | 2.6 µM | – | – | – | – | – | – | – | – | – | – | – | – | – | Kd [5]: 92 µM
LVPMVATV [LV8] | – | 42% | 1.7% | 54% | 2.8% | 40% | 1.5% | 54% | 3.9% | 53% | 0.4% | 45% | 1.6% | 0.008 µM | –
MV5 (MVATV), truncated NV9 variant (peptide) | 1.6 µM | – | – | – | – | – | – | – | – | – | – | – | – | – | –
